This passage reports IC50 results from ChEMBL document CHEMBL1150947, “Indole alkaloids from the tunicate Aplidium meridianum” (J Nat Prod, 1998).

A word on the IC50: it is the midpoint of a concentration-inhibition curve.

The nature of the assay: Cytotoxicity against mouse LMM3 cells. It counts as functional, cell-based.

Molecules are shown by their SMILES.

The compound `Nc1nccc(-c2c[nH]c3cc(Br)cc(O)c23)n1` [MERIDIANIN B] came in with a half-inhibitory concentration (IC50) of 11.4 µM.

Regarding `Nc1nccc(-c2c[nH]c3ccc(Br)cc23)n1` [MERIDIANIN C], the IC50 amounted to 9.3 µM.
